According to patent publication US20160000762A1, “IMPROVING COGNITIVE FUNCTION” (THE REGENTS OF THE UNIVERSITY OF CALIFORNIA, priority 2013, published 2016):

How the values were obtained:
[1] = test system: RasGRF1, GluA1, GluA2, p-ERK, p-Elk; test: Western blot of cortex and hippocampus, 3× Tg AD mice; assay type: in vivo
Experimental: Western blot and analysis. 3× Tg AD mice were injected with 30 mg/kg BTA-EG4 or vehicle daily for 2 weeks. After 2 weeks, the cortex and hippocampus were dissected and homogenized with RIPA buffer. Brain lysates were reduced, boiled, and run on a polyacrylamide gel followed by transfer onto nitrocellulose membrane and incubation in the following primary antibodies: rabbit anti-RasGRF1 (Santa Cruz, C-20), rabbit anti-GluA1 (Millipore, ab1504),mouse anti-GluA2 (Neuromab), rabbit anti-p-ERK (Invitrogen, 36880), or p-Elk (Cell Signal, 9181). Primary antibodies were applied overnight, washed with TBS buffer (3 washes, 5 min each), and HRP conjugated secondary antibodies were applied for 1 h. After 1 h, membranes were washed with TBS buffer (3 washes, 5 min each) and proteins were visualized by affixing the blots to autoradiography film. The density of each band was then quantified using ImageJ software (National Institutes of Health, […].) as a percentage of control following normalization to β-actin.

Ras [2] = test: GST-Raf1-RBD pulldown of active Ras, brain lysates of wild-type mice; assay type: in vivo; settings: 30 mg/kg daily for 2 weeks
Experimental: GST-pull-down assay. To measure levels of active Ras, brain lysate homogenized with Ral buffer (25 mM Tris-HCl, pH 7.4, 250 mM NaCl, 0.5% NP40, 1.25 mM MgCl2, and 5% glycerol) from APP transgenic, APP knockout, or wild-type mice was incubated with GST-Raf-RBD purified protein coupled with GLUTATHIONE SEPHAROSE™ (Amersham) overnight at 4° C. After 24 hours, pellets were washed with Ral buffer and western blotting was conducted with anti-Ras.
We next investigated the molecular mechanism by which BTA-EG4 may alter dendritic spine formation. Ras, a small GTPase, is involved in dendritic spine formation and synaptic delivery of AMPA receptors (Zhu et al., 2002; Lee et al., 2011). Moreover, abnormal Ras signaling is associated with neurodegenerative disease, causing cognitive impairments and learning deficits (Stornetta and Zhu, 2011). Thus, we initially investigated the effect of BTA-EG4 on Ras signaling by treating primary hippocampal neurons with BTA-EG4 (5 μM) or control for 24 hrs. […] Further, levels of active Ras were elevated following BTA-EG4 treatment (5 μM) in primary cortical neurons (FIG. 7C) and following BTA-EG4 treatment (30 mg/kg) in wild-type mice (FIG. 7D). We also examined whether BTA-EG4 can alter the activity of downstream Ras signaling proteins, including p-ERK and p-CREB.

Ras [3] = test: Ras activity assay, brain lysate of 3× Tg AD mice; assay type: in vivo; settings: cortex and hippocampus, 30 mg/kg daily, 2 weeks
Experimental: Ras activity assay. Brain lysate from 3× Tg AD mice at 6-10 months or 13-16 months of age was homogenized with Ral buffer (25 mM Tris-HCl, pH 7.4, 250 mM NaCl, 0.5% NP40, 1.25 mM MgCl2, and 5% glycerol) to measure active Ras levels. Briefly, brain lysate was incubated with GST-Raf-RBD purified protein coupled with GLUTATHIONE SEPHAROSE™ (Amersham) overnight at 4° C. After 24 h, pellets were washed with Ral buffer and western blotting was conducted with anti-Ras.
BTA-EG4 injected 6-10 month old 3× Tg AD mice had increased Ras activity. […] Therefore, we examined whether the same mechanism is shared for improving dendritic spine density in the 3× Tg AD mouse model. To test this, 6-10 month old or 13-16 month old 3× Tg AD mice were injected with 30 mg/kg BTA-EG4 or vehicle daily for two weeks. After two weeks, mouse brains were homogenized with Ral buffer and levels of active Ras and RasGRF1 ([…]) were measured via Western blot. […] However, Ras activity was unchanged in the cortex and hippocampus of 13-16 month old mice (FIGS. 12E-12H, n=2 brains/group).

APP = target: T1, APP (Rattus norvegicus, UniProt P08592); test: Cell surface biotinylation, primary cortical neurons; assay type: cell-based; settings: 5 μM, 24 h
T1 construct: BTA-EG4 increased endogenous cell surface APP levels in primary cortical neurons; endogenous in cells; host or cells: primary cortical neurons
Experimental: (§1) Cell surface biotinylation. COS7 cells were transiently transfected with APP for 24 hr in OPTI-MEM® containing 10% fetal bovine serum, and then treated with BTA-EG4 or control for 24 hr. After 24 hr, surface proteins were biotin labeled, immobilized with NeutrAvidin™ Gel and incubated 1 h with SDS-PAGE sample buffer, including 50 mM DTT, as described previously (Minami et al., 2010). Eluates were analyzed for APP by immunoblotting.
It is well known that the majority of a-secretase activity occurs on the cell surface, while β- and γ-secretase activity occurs primarily in the early and late endosomes (Huse et al., 2000; Reiss et al., 2006). Thus, if APP is present at the cell's surface, it is preferentially cleaved by α-secretase, resulting in decreased Aβ production. Therefore, we examined whether BTA-EG4 regulates cell surface expression of APP. To test this initially, COS7 cells were transfected with human APP and treated with BTA-EG4 (5 μM) or control (10% DMSO) for 24 h. […] Furthermore, BTA-EG4 increased endogenous cell surface APP levels in primary cortical neurons following 24 h of BTA-EG4 (5 μM) treatment compared with control (10% DMSO) treatment (FIG. 1I). In an alternative approach to examine the effect of BTA-EG4 on cell surface APP expression, we conducted live cell-surface immunostaining in primary hippocampal neurons.

human APP = target: T2, human APP (Homo sapiens, UniProt P05067); test: Cell surface biotinylation, COS7 cells expressing APP; assay type: cell-based; settings: 5 μM, 24 h
T2 construct: expressed in transfected cells; host or cells: COS7 cells
Experimental: Cell lines. COS 7 cells (Lombardi Co-Resources Cancer Center, Georgetown University) were maintained in Opti-MEMO (Invitrogen) with 10% fetal bovine serum (FBS, Life Technologies, Inc.) in a 5% CO2 incubator. The cells were transiently transfected with 0.5-1 μg of plasmid in FuGENE® 6 (Roche) according to the manufacturer's protocol and cultured 24 hr in DMEM containing 10% FBS. For co-transfections, cells were similarly transfected with 0.5-1 μg of each plasmid in FUGENE® 6 (Roche) and cultured 24 hr in DMEM with 10% FBS.
as §1
It is well known that the majority of a-secretase activity occurs on the cell surface, while β- and γ-secretase activity occurs primarily in the early and late endosomes (Huse et al., 2000; Reiss et al., 2006). Thus, if APP is present at the cell's surface, it is preferentially cleaved by α-secretase, resulting in decreased Aβ production. Therefore, we examined whether BTA-EG4 regulates cell surface expression of APP. […]

[4] = hippocampus, 6-10 months, 30 mg/kg daily, 2 weeks

T2 sequence (P05067 18-770): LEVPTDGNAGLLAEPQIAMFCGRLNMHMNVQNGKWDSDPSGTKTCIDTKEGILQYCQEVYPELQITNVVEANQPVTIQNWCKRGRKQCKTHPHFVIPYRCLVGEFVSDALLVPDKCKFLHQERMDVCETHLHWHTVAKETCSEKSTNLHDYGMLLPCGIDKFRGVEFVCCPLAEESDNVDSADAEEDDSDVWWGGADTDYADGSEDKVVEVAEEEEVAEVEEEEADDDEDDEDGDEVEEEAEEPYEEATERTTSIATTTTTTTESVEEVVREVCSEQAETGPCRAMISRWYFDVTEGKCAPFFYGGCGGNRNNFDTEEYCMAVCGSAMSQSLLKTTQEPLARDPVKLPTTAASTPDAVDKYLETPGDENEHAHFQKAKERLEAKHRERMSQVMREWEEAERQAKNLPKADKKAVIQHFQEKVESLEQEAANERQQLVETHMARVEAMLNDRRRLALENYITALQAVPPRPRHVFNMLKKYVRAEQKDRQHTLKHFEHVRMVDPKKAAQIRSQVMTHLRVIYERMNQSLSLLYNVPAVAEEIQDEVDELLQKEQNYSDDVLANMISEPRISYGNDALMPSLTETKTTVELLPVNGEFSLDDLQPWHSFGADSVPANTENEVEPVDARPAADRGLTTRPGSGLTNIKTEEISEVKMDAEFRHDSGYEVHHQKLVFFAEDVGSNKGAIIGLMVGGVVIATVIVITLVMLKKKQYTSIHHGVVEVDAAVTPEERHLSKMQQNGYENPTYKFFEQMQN
T1 sequence (P08592 18-770): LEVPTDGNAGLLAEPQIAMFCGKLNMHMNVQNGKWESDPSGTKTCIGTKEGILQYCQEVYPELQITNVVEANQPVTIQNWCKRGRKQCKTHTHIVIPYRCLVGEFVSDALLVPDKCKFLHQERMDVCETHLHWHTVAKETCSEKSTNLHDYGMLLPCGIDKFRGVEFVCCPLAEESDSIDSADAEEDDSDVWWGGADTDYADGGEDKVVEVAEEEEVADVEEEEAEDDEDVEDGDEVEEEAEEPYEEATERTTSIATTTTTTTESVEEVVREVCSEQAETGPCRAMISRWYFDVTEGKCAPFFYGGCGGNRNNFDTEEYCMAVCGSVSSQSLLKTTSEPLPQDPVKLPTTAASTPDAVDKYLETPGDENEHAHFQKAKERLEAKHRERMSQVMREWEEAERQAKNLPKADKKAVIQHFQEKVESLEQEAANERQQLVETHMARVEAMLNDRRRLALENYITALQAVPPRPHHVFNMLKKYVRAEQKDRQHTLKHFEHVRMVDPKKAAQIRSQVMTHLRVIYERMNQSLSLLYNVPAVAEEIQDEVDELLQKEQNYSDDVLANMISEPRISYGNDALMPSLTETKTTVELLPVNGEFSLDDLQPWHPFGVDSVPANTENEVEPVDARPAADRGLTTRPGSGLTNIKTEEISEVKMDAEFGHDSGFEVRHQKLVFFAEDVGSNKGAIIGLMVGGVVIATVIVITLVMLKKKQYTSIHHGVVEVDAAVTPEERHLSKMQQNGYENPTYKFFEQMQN

## BTA-EG4
[1]; 6-10 months
  levels of p-Elk: did not alter
[1]; 13-16 months
  levels of p-Elk: did not alter
[1]; cortex and hippocampus, 6-10 months, 30 mg/kg daily, 2 weeks
  levels of p-ERK and ERK: did not have altered levels
[1]; cortex and hippocampus, 13-16 months
  levels of AMPA receptor subunits: no statistically significant change
[1]; cortex, 6-10 months, 30 mg/kg daily, 2 weeks
  GluA2 levels: only a trend of an increase
[1]; [4]
  GluA1 levels: without a significant change
  GluA2 levels: increased
Ras [2]
  levels of active Ras: elevated
Ras [3]; 6-10 months
  Ras activity: increased
Ras [3]; 13-16 months
  Ras activity: unchanged
APP
  endogenous cell surface APP levels: increased
Human APP
  cell surface APP: increased
